Experimental data: patent US10266537B2, “3-acetylenyl-pyrazole-pyrimidine derivative, and preparation method therefor and uses thereof” (Si Chuan University, priority 2015, dated 2019)
pIC50: −log10 of the molar value. One block for each compound: values may come before it.

Columns and labels:
MDA-MB-453 = test: cells; settings: Homo sapiens, MDA-MB-453, 72 h, read-out: Proliferation inhibitory activity IC50
Met(Y1248D)(h) = Met(Y1248D)(h) (Homo sapiens (Human), UniProt P08581, Y1248D); test: Kinase inhibition assay (KinaseProfiler, 33P-ATP); assay type: biochemical; settings: read-out: The percentage of the remaining active protein
IRE1(h) = IRE1(h) (Homo sapiens (Human), UniProt O75460); test: Kinase inhibition assay (KinaseProfiler, 33P-ATP); assay type: biochemical; settings: read-out: The percentage of the remaining active protein
PKG1β(h) = PKG1β(h) (Homo sapiens (Human), UniProt Q13976); test: Kinase inhibition assay (KinaseProfiler, 33P-ATP); assay type: biochemical; settings: read-out: The percentage of the remaining active protein
CDK5/p35(h) = CDK5/p35(h) (Homo sapiens (Human), UniProt Q00535); test: Kinase inhibition assay (KinaseProfiler, 33P-ATP); assay type: biochemical; settings: read-out: The percentage of the remaining active protein
cKit(h) = cKit(h) (Homo sapiens (Human), UniProt P10721); test: Kinase inhibition assay (KinaseProfiler, 33P-ATP); assay type: biochemical; settings: 10 μM, read-out: The percentage of the remaining active protein
cKit(h), sequence (P10721 26-976): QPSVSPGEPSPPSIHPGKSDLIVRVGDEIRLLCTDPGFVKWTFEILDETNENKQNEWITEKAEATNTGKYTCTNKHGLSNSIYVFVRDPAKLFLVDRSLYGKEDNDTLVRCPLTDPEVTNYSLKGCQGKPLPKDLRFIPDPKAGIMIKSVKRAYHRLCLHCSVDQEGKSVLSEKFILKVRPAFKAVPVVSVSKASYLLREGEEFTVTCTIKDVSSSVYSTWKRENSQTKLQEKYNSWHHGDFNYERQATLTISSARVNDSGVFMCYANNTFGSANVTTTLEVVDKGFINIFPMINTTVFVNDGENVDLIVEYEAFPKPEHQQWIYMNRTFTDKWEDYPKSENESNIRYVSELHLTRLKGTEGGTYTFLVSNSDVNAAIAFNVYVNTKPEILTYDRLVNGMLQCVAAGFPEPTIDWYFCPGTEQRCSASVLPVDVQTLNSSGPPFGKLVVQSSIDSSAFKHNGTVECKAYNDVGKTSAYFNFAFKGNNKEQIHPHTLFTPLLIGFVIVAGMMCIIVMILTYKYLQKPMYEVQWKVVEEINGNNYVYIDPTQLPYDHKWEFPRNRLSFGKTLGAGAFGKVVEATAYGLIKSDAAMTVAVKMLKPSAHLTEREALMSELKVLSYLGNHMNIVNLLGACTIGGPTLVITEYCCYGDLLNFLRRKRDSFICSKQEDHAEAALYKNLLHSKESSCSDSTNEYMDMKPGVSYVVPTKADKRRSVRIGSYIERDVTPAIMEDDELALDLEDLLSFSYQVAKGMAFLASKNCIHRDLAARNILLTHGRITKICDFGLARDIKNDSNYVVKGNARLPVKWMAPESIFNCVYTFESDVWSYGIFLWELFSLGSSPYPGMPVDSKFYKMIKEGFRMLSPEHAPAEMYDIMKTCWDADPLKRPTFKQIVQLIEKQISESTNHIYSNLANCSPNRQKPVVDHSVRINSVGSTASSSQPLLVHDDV

ROCK-I(h) = ROCK-I(h) (Homo sapiens (Human), UniProt Q13464); test: Kinase inhibition assay (KinaseProfiler, 33P-ATP); assay type: biochemical; settings: read-out: The percentage of the remaining active protein
MAPKAP-K3(h) = MAPKAP-K3(h) (Homo sapiens (Human), UniProt Q16644); test: Kinase inhibition assay (KinaseProfiler, 33P-ATP); assay type: biochemical; settings: read-out: The percentage of the remaining active protein
SGK2(h) = SGK2(h) (Homo sapiens (Human), UniProt Q9HBY8); test: Kinase inhibition assay (KinaseProfiler, 33P-ATP); assay type: biochemical; settings: read-out: The percentage of the remaining active protein
EGFR(T790M, L858R) = EGFR(T790M, L858R) (Homo sapiens (Human), UniProt P00533, L858R/T790M); test: Kinase inhibition assay (KinaseProfiler, 33P-ATP); assay type: biochemical; settings: EGFR(T790M, L858R)(h), read-out: The percentage of the remaining active protein
PKCε(h) = PKCε(h) (Homo sapiens (Human), UniProt Q02156); test: Kinase inhibition assay (KinaseProfiler, 33P-ATP); assay type: biochemical; settings: read-out: The percentage of the remaining active protein
SAPK2b = SAPK2b (Homo sapiens (Human), UniProt Q15759); test: Kinase inhibition assay (KinaseProfiler, 33P-ATP); assay type: biochemical
SAPK2b, sequence (Q15759 whole entry): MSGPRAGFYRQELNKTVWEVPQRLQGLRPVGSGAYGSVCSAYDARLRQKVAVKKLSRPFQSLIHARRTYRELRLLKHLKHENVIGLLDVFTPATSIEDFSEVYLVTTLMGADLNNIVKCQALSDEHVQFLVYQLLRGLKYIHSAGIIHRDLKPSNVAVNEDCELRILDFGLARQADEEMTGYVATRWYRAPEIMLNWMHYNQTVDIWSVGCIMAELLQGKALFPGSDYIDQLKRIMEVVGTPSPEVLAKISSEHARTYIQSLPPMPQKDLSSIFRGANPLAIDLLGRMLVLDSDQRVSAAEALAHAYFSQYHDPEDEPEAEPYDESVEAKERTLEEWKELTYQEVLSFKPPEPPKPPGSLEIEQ

MLK1(h) = MLK1(h) (Homo sapiens (Human), UniProt P80192); test: Kinase inhibition assay (KinaseProfiler, 33P-ATP); assay type: biochemical; settings: read-out: The percentage of the remaining active protein
TLK1(h) = TLK1(h) (Homo sapiens (Human), UniProt Q9UKI8); test: Kinase inhibition assay (KinaseProfiler, 33P-ATP); assay type: biochemical; settings: read-out: The percentage of the remaining active protein
GRK5(h) = GRK5(h) (Homo sapiens (Human), UniProt P34947); test: Kinase inhibition assay (KinaseProfiler, 33P-ATP); assay type: biochemical; settings: read-out: The percentage of the remaining active protein
[1] = biological target: PI3 Kinase (p110a(E545K)/p85a)(h) (Homo sapiens (Human), UniProt P42336, E545K); test: Kinase inhibition assay (KinaseProfiler, 33P-ATP); assay type: biochemical; settings: read-out: The percentage of the remaining active protein
IKKε(h) = IKKε(h) (Homo sapiens (Human), UniProt Q14164); test: Kinase inhibition assay (KinaseProfiler, 33P-ATP); assay type: biochemical; settings: read-out: The percentage of the remaining active protein
MST1(h) = MST1(h) (Homo sapiens (Human), UniProt Q13043); test: Kinase inhibition assay (KinaseProfiler, 33P-ATP); assay type: biochemical; settings: read-out: The percentage of the remaining active protein
EphB3 = EphB3 (Homo sapiens (Human), UniProt P54753); test: Kinase inhibition assay (KinaseProfiler, 33P-ATP); assay type: biochemical; settings: EphB3(h), read-out: The percentage of the remaining active protein
CDK5/p25(h) = CDK5/p25(h) (Homo sapiens (Human), UniProt Q00535); test: Kinase inhibition assay (KinaseProfiler, 33P-ATP); assay type: biochemical; settings: read-out: The percentage of the remaining active protein
GCN2(h) = GCN2(h) (Homo sapiens (Human), UniProt Q9P2K8); test: Kinase inhibition assay (KinaseProfiler, 33P-ATP); assay type: biochemical; settings: read-out: The percentage of the remaining active protein
GCN2(h), sequence (Q9P2K8 whole entry): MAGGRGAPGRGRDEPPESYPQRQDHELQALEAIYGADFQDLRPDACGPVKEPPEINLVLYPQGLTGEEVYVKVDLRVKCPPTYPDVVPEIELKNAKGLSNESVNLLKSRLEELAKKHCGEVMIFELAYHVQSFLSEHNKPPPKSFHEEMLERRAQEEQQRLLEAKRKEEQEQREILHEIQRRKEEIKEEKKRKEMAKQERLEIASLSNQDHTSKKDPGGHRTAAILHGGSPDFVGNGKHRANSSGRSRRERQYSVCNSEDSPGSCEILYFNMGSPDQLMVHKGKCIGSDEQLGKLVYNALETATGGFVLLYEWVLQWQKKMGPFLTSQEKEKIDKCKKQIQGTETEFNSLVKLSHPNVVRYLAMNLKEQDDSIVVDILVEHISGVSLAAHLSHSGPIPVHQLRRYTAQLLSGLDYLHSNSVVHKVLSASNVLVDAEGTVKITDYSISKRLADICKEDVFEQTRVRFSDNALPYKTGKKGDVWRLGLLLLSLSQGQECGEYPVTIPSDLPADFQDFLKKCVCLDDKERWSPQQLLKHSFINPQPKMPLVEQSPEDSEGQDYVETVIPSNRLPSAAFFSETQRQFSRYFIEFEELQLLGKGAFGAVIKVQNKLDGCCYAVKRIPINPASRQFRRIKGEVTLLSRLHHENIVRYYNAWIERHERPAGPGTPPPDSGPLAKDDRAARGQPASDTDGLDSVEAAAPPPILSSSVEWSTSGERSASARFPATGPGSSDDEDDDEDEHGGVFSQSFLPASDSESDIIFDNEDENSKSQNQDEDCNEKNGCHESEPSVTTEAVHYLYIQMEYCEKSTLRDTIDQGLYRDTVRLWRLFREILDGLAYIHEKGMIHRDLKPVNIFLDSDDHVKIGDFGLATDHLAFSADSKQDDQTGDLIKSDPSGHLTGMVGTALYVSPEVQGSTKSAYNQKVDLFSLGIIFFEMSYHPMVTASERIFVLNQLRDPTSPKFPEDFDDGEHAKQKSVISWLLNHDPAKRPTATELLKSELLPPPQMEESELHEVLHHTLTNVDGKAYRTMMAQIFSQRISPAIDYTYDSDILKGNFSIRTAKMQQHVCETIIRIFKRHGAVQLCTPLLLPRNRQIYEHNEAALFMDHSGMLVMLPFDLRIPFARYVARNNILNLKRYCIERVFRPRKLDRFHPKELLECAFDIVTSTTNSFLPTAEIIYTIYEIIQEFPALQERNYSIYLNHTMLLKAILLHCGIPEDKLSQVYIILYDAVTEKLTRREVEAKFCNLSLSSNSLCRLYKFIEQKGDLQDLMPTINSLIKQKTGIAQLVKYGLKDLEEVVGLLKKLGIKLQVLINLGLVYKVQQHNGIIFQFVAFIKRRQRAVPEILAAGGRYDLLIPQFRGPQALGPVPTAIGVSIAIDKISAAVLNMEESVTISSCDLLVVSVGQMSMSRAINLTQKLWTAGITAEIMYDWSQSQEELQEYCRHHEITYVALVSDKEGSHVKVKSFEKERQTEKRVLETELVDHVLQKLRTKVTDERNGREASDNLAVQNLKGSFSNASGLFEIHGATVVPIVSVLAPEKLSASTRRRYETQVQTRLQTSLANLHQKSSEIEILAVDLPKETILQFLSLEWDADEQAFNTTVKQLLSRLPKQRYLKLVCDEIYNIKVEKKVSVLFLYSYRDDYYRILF

IRAK1(h) = IRAK1(h) (Homo sapiens (Human), UniProt P51617); test: Kinase inhibition assay (KinaseProfiler, 33P-ATP); assay type: biochemical; settings: read-out: The percentage of the remaining active protein
HIPK1(h) = HIPK1(h) (Homo sapiens (Human), UniProt Q86Z02); test: Kinase inhibition assay (KinaseProfiler, 33P-ATP); assay type: biochemical; settings: read-out: The percentage of the remaining active protein
PAK6(h) = PAK6(h) (Homo sapiens (Human), UniProt Q9NQU5); test: Kinase inhibition assay (KinaseProfiler, 33P-ATP); assay type: biochemical; settings: read-out: The percentage of the remaining active protein
FGFR1(V561M)(h) = FGFR1(V561M)(h) (Homo sapiens (Human), UniProt P11362, V561M); test: Kinase inhibition assay (KinaseProfiler, 33P-ATP); assay type: biochemical; settings: read-out: The percentage of the remaining active protein
DAPK1(h) = DAPK1(h) (Homo sapiens (Human), UniProt P53355); test: Kinase inhibition assay (KinaseProfiler, 33P-ATP); assay type: biochemical; settings: read-out: The percentage of the remaining active protein
Rsk2(h) = Rsk2(h) (Homo sapiens (Human), UniProt P51812); test: Kinase inhibition assay (KinaseProfiler, 33P-ATP); assay type: biochemical; settings: read-out: The percentage of the remaining active protein
SRPK2(h) = SRPK2(h) (Homo sapiens (Human), UniProt P78362); test: Kinase inhibition assay (KinaseProfiler, 33P-ATP); assay type: biochemical; settings: read-out: The percentage of the remaining active protein
ALK1(h) = ALK1(h) (Homo sapiens (Human), UniProt P37023); test: Kinase inhibition assay (KinaseProfiler, 33P-ATP); assay type: biochemical; settings: read-out: The percentage of the remaining active protein
[2] = biological target: PI3 Kinase (p110a(H1047R)/p85a)(m) (Mus musculus (Mouse), UniProt P42337, H1047R); test: Kinase inhibition assay (KinaseProfiler, 33P-ATP); assay type: biochemical; settings: read-out: The percentage of the remaining active protein
p70S6K(h) = p70S6K(h) (Homo sapiens (Human), UniProt P23443); test: Kinase inhibition assay (KinaseProfiler, 33P-ATP); assay type: biochemical; settings: read-out: The percentage of the remaining active protein
CSK = CSK (Homo sapiens (Human), UniProt P41240); test: Kinase inhibition assay (KinaseProfiler, 33P-ATP); assay type: biochemical
Flt1 = Flt1 (Homo sapiens (Human), UniProt P17948); test: Kinase inhibition assay (KinaseProfiler, 33P-ATP); assay type: biochemical
Flt1, sequence (P17948 27-1338): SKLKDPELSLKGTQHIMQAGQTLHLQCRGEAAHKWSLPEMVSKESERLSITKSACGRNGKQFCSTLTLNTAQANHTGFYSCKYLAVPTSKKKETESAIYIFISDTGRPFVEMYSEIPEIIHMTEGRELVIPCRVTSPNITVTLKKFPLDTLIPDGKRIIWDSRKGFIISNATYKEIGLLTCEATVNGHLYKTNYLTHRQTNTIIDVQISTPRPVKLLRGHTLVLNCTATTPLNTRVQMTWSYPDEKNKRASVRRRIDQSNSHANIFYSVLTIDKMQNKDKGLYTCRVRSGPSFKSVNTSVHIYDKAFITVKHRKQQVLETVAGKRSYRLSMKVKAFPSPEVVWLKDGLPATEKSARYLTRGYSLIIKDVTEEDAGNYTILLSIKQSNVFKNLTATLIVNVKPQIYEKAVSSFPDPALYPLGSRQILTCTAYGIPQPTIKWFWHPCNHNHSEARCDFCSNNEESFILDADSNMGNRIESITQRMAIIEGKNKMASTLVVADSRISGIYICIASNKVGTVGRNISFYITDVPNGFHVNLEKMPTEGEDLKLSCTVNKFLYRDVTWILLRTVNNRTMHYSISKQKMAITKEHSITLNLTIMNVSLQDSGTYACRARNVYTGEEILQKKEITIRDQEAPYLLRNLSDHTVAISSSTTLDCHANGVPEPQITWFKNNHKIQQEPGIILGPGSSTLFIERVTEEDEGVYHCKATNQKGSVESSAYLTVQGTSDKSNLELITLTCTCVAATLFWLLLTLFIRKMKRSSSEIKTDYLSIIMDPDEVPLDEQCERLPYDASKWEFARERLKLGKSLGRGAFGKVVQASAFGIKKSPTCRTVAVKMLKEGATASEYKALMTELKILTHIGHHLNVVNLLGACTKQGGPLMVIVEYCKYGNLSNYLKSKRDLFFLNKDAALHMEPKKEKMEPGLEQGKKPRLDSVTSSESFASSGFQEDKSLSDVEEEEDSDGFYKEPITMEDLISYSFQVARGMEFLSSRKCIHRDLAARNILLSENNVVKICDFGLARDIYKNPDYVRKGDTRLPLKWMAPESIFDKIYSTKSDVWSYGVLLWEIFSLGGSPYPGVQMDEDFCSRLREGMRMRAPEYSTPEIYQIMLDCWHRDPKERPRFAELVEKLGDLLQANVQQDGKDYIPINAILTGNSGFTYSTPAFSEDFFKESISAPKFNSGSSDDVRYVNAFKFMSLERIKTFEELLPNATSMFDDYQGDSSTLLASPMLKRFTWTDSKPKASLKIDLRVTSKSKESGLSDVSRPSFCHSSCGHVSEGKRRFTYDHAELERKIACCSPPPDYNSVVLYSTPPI

STK33(h) = STK33(h) (Homo sapiens (Human), UniProt Q9BYT3); test: Kinase inhibition assay (KinaseProfiler, 33P-ATP); assay type: biochemical; settings: read-out: The percentage of the remaining active protein
STK33(h), sequence (Q9BYT3 whole entry): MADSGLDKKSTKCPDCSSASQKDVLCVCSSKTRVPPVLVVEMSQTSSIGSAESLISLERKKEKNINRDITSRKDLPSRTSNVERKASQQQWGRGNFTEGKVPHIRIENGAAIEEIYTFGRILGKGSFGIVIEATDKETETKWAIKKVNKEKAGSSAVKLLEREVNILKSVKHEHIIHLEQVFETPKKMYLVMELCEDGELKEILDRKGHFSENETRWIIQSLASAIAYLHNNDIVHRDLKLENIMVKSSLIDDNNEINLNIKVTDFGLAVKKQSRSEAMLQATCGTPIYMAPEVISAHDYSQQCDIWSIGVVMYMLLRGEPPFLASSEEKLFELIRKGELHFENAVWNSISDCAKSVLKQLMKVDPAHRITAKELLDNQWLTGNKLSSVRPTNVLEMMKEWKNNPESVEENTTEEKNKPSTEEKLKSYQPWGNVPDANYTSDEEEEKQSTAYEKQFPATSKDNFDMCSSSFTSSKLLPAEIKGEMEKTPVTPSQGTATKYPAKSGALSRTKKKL

SMILES: CCn1nc(C#Cc2cc(C(=O)Nc3ccc(CN4CCN(C)CC4)c(C(F)(F)F)c3)ccc2C)c2c(N)ncnc21 [Compound 3]
- pIC50 (MDA-MB-453): 5.47

- remaining activity at 10 µM (Met(Y1248D)(h)): 105%
- remaining activity at 10 µM (IRE1(h)): 94%
- remaining activity at 10 µM (PKG1β(h)): 115%
- remaining activity at 10 µM (CDK5/p35(h)): 127%
- remaining activity at 10 µM (cKit(h)): 89%
- remaining activity at 10 µM (ROCK-I(h)): 126%
- remaining activity at 10 µM (MAPKAP-K3(h)): 96%
- remaining activity at 10 µM (SGK2(h)): 97%
- remaining activity at 10 µM (EGFR(T790M, L858R)): 0%
- remaining activity at 10 µM (PKCε(h)): 117%
- remaining activity at 10 µM (SAPK2b; SAPK2b(h), 10 μM, read-out: The percentage of the remaining active protein): -2%
- pIC50 (SAPK2b; SAPK2b, ATP at Km): 7.08
- remaining activity at 10 µM (MLK1(h)): 7%
- remaining activity at 10 µM (TLK1(h)): 95%
- remaining activity at 10 µM (GRK5(h)): 99%
- remaining activity at 10 µM [1]: 92%
- remaining activity at 10 µM (IKKε(h)): 94%
- remaining activity at 10 µM (MST1(h)): 109%
- remaining activity at 10 µM (EphB3): 5%
- remaining activity at 10 µM (CDK5/p25(h)): 87%
- remaining activity at 10 µM (GCN2(h)): 50%
- remaining activity at 10 µM (IRAK1(h)): 30%
- remaining activity at 10 µM (HIPK1(h)): 107%
- remaining activity at 10 µM (PAK6(h)): 92%
- remaining activity at 10 µM (FGFR1(V561M)(h)): 40%
- remaining activity at 10 µM (DAPK1(h)): 97%
- remaining activity at 10 µM (Rsk2(h)): 44%
- remaining activity at 10 µM (SRPK2(h)): 107%
- remaining activity at 10 µM (ALK1(h)): 71%
- remaining activity at 10 µM [2]: 94%
- remaining activity at 10 µM (p70S6K(h)): 33%
- remaining activity at 10 µM (CSK; CSK(h), 10 μM, read-out: The percentage of the remaining active protein): -1%
- pIC50 (CSK; CSK, ATP at Km): 8.05
- remaining activity at 10 µM (Flt1; Flt1(h), 10 μM, read-out: The percentage of the remaining active protein): 3%
- pIC50 (Flt1; Flt1, ATP at Km): 7.82
- remaining activity at 10 µM (STK33(h)): 109%
SMILES: Cc1ccc(NC(=O)c2ccc(C)c(C(F)(F)F)c2)cc1C#Cc1nn([C@H]2CC[C@H](O)CC2)c2ncnc(N)c12 [Compound 93]
